{
  "source": "patent EP0598011B1",
  "about": "“ECDYSTEROID DEPENDENT REGULATION OF GENES IN MAMMALIAN CELLS” (GENENTECH, INC., priority 1991, dated 1993)",
  "key": {"GXG": {"target": "T1, GXG (Rattus norvegicus, UniProt P06536)", "T1 construct": "expressed in transfected cells", "T1 sequence (P06536 528-795)": "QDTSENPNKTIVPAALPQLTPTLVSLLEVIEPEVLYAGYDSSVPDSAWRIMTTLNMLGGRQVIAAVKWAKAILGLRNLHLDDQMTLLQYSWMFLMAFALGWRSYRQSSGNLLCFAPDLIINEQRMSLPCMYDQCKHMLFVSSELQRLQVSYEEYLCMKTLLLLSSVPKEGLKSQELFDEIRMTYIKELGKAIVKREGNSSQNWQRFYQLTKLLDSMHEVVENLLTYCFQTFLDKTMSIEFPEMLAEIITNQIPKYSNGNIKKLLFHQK", "assay": "Lex-operator reporter X4C-33CO with GXG", "format": "cell-based", "conditions": "receptor GXG, SD in parentheses", "description": "(§1) Such fusion constructs are expected to be useful in regulating the expression of exogenous genes introduced into transgenic mammals or mammalian cells. I next determined if the DHR23α ligand-binding domain could be used to regulate the activity of a DNA-binding domain not normally expressed in mammalian cells. I constructed the chimeric gene GLxEc by replacing the sequences coding for the GR DNA-binding domain in the GGEc fusion with those encoding the DNA-binding domain of the Escherichia coli LexA repressor (J. W. Little and S. A. Hill, Proc. Natl. Acad. Sci. U.S.A. 82, 2301 [1985]) (Fig. 4). A reporter gene, X4C-33CO was constructed that contains 4 copies of a 26-bp lex operator (R. Brent and M. Ptashne, Nature 312, 612 [1984]) at position -33 of the CMV promoter. GLxEc had no effect on the expression of a OC-33CO, a reporter gene lacking the lex operator (Fig. 6B).\n(§2) Illustrated in Table 2 is the transcriptional activation by receptor-LexA fusion proteins. Effector plasmids encoding the indicated receptor proteins were transfected with a reporter gene either containing (X4C-33CO) or lacking (OC-33CO) lex-operators. […] The cells were incubated either with (+) or without (-) muristerone A. The fold induction was determined as described previously; the standard deviations are shown in parenthesis."}, "OC-33CO": {"test_system": "OC-33CO", "assay": "Reporter OC-33CO lacking lex-operators, control effector plasmid without receptor cDNA", "format": "cell-based", "conditions": "SD in parentheses", "description": "as §1, §2"}, "GGG": {"target": "T2, GGG (Rattus norvegicus, UniProt P06536)", "T2 sequence (P06536 1-795)": "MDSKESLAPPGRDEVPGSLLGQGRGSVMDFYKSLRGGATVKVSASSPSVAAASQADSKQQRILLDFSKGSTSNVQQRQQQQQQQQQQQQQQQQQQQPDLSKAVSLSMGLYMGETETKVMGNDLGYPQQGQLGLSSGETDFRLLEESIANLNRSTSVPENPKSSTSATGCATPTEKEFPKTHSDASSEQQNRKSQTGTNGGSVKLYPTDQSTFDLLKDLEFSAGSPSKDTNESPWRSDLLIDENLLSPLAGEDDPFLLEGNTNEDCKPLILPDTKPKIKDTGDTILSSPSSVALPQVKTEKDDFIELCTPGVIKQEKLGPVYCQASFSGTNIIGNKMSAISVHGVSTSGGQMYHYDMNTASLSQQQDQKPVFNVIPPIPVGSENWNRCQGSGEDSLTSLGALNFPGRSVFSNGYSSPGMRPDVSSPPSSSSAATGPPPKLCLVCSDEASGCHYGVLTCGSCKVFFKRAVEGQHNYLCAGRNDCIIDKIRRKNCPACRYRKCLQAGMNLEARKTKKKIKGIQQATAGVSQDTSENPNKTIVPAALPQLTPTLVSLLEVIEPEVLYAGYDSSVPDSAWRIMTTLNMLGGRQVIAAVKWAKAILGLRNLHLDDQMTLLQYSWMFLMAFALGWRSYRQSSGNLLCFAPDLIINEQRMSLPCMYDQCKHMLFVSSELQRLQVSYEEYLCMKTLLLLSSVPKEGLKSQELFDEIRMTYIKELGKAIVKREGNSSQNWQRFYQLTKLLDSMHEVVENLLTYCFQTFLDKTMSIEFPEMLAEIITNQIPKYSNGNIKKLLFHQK", "assay": "Induction of GRE reporter G4M-77CO by GGG (glucocorticoid receptor) in 293 cells", "conditions": "normalized to hGH, SD in parentheses, 2880 min"}, "insect": {"test_system": "insect", "conditions": "in vivo; cited from earlier work"}, "VXEc": {"target": "T3, VXEc (Drosophila melanogaster, UniProt P34021)", "T3 construct": "expressed in transfected cells", "T3 sequence (P34021 329-878)": "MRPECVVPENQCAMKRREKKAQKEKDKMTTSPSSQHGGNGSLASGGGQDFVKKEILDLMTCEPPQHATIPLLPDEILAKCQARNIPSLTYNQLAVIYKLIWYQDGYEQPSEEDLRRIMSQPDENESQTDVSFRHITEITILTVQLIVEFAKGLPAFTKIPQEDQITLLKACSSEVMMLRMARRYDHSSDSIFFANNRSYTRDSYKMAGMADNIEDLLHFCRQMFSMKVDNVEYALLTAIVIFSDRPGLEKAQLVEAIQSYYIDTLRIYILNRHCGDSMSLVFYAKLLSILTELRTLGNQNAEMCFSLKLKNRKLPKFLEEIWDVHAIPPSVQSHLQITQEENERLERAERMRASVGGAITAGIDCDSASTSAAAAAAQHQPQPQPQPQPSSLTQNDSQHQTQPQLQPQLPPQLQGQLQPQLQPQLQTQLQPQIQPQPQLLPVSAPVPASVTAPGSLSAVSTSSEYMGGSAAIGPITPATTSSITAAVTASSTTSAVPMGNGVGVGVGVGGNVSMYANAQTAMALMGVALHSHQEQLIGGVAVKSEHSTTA", "assay": "Reporter OC-33CO lacking lex-operators with VXEc", "format": "cell-based", "conditions": "receptor VXEc, SD in parentheses", "description": "(§3) Finally, I determined if the activity of DHR23α fusion proteins could be further enhanced by inclusion of a potent viral transactivation domain. I constructed VGEc and VLxEc fusion genes by replacing a portion of the GR N-terminal activation domain in GGEc and GLxEc, respectively, with the herpes virus VP16 acidic activation domain (I. Sadowski et al., […]. 335, 563 [1988]; D. J. Cousens, R. Greaves, C. R. Coding, and P. O'Hare, EMBO J. 8, 2337 [1989]) (Fig. 4A). In transfected cells, these proteins accumulated to similar levels as derivatives lacking the VP16 activation domain (Fig. 4B). Both VGEc and VLxEc acted in an ecdysteroid-dependent fashion to induce activity of the appropriate reporter gene (Tables 1 and 2). However, the activity of VGEc and VLxEc was 5 and 10 fold greater than GGEc and GLxEc, respectively (M..A. Labow, S.B. Baim, T. Shenk, and A. J. Levine, Mol. and Cell. Biol. 10, 3343 [1990]). Thus, the DHR23α ligand-binding domain can be used to regulate the activities of viral, mammalian and bacterial DNA-binding or transactivation domains.\nIllustrated in Table 2 is the transcriptional activation by receptor-LexA fusion proteins. […] The cells were incubated either with (+) or without (-) muristerone A. The fold induction was determined as described previously; the standard deviations are shown in parenthesis."}, "VGEc": {"target": "T4, VGEc (Drosophila melanogaster, UniProt P34021)", "T4 construct": "expressed in transfected cells; host or cells: 293 cells", "T4 sequence (P34021 329-878)": "T3 sequence (P34021 329-878)", "assay": "Induction of GRE reporter G4M-77CO by chimeric receptor VGEc in 293 cells", "format": "cell-based", "conditions": "normalized to hGH, SD in parentheses", "description": "as §3"}},
  "data": [
    {"molecule": "CC(C)CCC(O)[C@](C)(O)[C@H]1CC[C@@]2(O)C3=CC(=O)C4(O)CC(O)C(O)C[C@]4(C)[C@H]3C(O)C[C@]12C", "note": "(stereo partly shown) [muristerone A, 2,3,5,11,14,20,22-Heptahydroxy-7-cholesten-6-one]", "values": [
      {"measurement": "fold induction", "setting": "GXG", "result": "1.1 (0.2) fold"},
      {"measurement": "fold induction", "setting": "GXG; listed as muristerone", "result": "not induced"},
      {"measurement": "fold induction", "setting": "OC-33CO", "result": "1.1 (0.4) fold"},
      {"measurement": "fold induction", "setting": "GGG", "result": "1.0 (0.3) fold"},
      {"measurement": "insect moulting activity", "setting": "insect", "result": "high"},
      {"measurement": "fold induction", "setting": "VXEc", "result": "1.0 (0.2) fold"},
      {"measurement": "fold induction", "setting": "VGEc", "result": "3117 (240) fold"}
    ]}
  ]
}
